Data as given in patent publication US20200276154A1, “COMPOSITION FOR PROMOTING ADIPOCYTE DIFFERENTIATION OR ADIPONECTIN, COMPRISING TRIMETHOXY PHENYL COMPOUND” (AMOREPACIFIC CORPORATION, priority 2017, published 2020).

Experiments:
Type in all cases: cell-based, human
[1] = test system: hSCFs; experiment: Quantitative analysis of adipocyte differentiation by Oil Red O (ORO) staining; conditions: 14 days differentiation, compared with KA 400 μM, CA 60 μM, GC 30 μM
Description: Human subcutaneous fat cells (hereinafter, hSCFs) and a subcutaneous preadipocyte differentiation medium were purchased from ZenBio Inc. (NC, USA). The cells were cultured in a humidified 5% CO2 incubator for 7 days.
To induce differentiation, the hSCFs were cultured further for 14 days in a Dulbecco's modified Eagle's medium (DMEM; Lonza, MD, USA) supplemented with 10% fetal bovine serum (FBS, PAA, Pasching, Austria), 10 μg/mL insulin (Sigma-Aldrich, MO, USA), 0.5 mM 3-isobutyl-1-methylxanthine (IBMX; Sigma-Aldrich, St. Louis, Mo., USA), 1 μM dexamethasone (DEX, Sigma-Aldrich, St. Louis, Mo., USA) and 1 μM troglitazone (Sigma-Aldrich, St. Louis, Mo., USA) while replacing the medium every other day.
The hSCFs cultured in Example 1 were differentiated for a total of 14 days by treating with a composition containing PAC-2 at various concentrations (μM) or with KA (400 μM), CA (60 μM) or GC (30 μM) as positive control groups. Then, after washing twice with cold PBS (phosphate-buffered saline), the cells were fixed in 3.7% formaldehyde (Sigma-Aldrich, St. Louis, Mo., USA) for 1 hour. The fixed hSCFs were washed with 60% propylene glycol (Sigma-Aldrich, St. Louis, Mo., USA) in PBS and were treated with Oil Red 0 (0.3% Oil Red 0 in 60% propylene glycol; Sigma-Aldrich, St. Louis, Mo., USA) for 30 minutes. The cells were washed with 85% propylene glycol thrice and then rinsed with tap water. […]

[2] = test system: adiponectin (Adipoq) mRNA in hSCFs; experiment: mRNA expression of adiponectin by real-time quantitative PCR (RT-qPCR); conditions: compared with positive control groups KA 400 μM, CA 60 μM, GC 30 μM
Description: Total RNA was extracted by treating the hSCFs cultured in Example 1 with a composition containing PAC-2 at various concentrations (μM) or KA (400 μM), CA (60 μM) and GC (30 μM) as positive control groups using a TRIzol reagent (Life Technologies, Carlsbad, Calif., USA) according to the manufacturer's instructions. 1 μg of total RNA was utilized to synthesize complementary DNAs (cDNAs) using the RevertAid first strand cDNA synthesis kit (Thermo Scientific, Pittsburgh, Pa., USA). About 1 μg of the cDNA sample and each TaqMan® probe (Life Technologies, Carlsbad, Calif., USA) were diluted in a reaction mixture of the Quantitect probe PCR kit (QIAGEN, Valencia, Calif., USA) and PCR was conducted using the 7500 fast real-time PCR system (Life Technologies, Carlsbad, Calif., USA). The TaqMan® probe was glyceraldehyde-3-phosphate dehydrogenase (GAPDH; Part #4352339E). All data were acquired from three independent experiments and are presented as fold changes relative to the GAPDH control group.

[3] = test system: secreted adiponectin from hSCFs; experiment: Quantitative analysis of adiponectin production by ELISA; conditions: culture medium, compared with positive control groups KA 400 μM, CA 60 μM, GC 30 μM
Description: The hSCFs cultured in Example 1 were treated with KA (400 μM), CA (60 μM) or GC (30 μM) as positive control groups or a composition containing PAC-2 at various concentrations. The culture medium was collected and centrifuged at 13,000 rpm for 15 minutes to remove any debris. The secreted adiponectin was measured using an adiponectin ELISA kit (Enzo Life Sciences, Farmingdale, N.Y., USA) according to the manufacturer's instructions.

COc1cc(/C=C/C(=O)OCc2cc(=O)c(O)co2)cc(OC)c1OC [PAC-2, 3-(3,4,5-trimethoxyphenyl)-acrylic acid 5-hydroxy-4-oxo-4H-pyran-2-ylmethyl ester]
number of Oil Red O stained cells ([1]; 25 μM): remarkably increased number of stained cells | number of Oil Red O stained cells ([1]; 50 μM): remarkably increased number of stained cells | mRNA expression level of adiponectin ([2]; 25 μM): ≥ 3 times | mRNA expression level of adiponectin ([2]; 50 μM): ≥ 5 times | amount of the secreted adiponectin ([3]; 25 μM): ≥ 3 times | amount of the secreted adiponectin ([3]; 50 μM): ≥ 7 times
